These results are taken from patent US6858235B2, “Antioxidant composition and method of preparation thereof” (Eromlife Co. Ltd., priority 2002, dated 2005).

The experiment can be described thus: Antioxidant activity using the free radical source DPPH (absorbance at 517 nm). The settings on record: for Antioxidant activity RC50: DPPH 0.4 mM, room temperature, 30 minutes, absorbance 517 nm, concentration giving 50% of control absorbance. Format: biochemical. The procedure: The antioxidant activity of the Rosa multiflora extract of the present invention obtained according to the above method was measured according to the method for measuring antioxidant activity (The Korean Society of Food and Nutrition, Handbook for Experiments in Food and Nutrition, 651p, 2000; Blois, M. S., Nature, 4617:1198, 1958).
In addition, active fractions showing antioxidant activity can be obtained by fractionating and purifying the obtained Rosa multiflora extracts by chromatography. It is preferable to carry out silica gel column chromatography once or twice. Where active fractions obtained by silica gel column chromatography are further subjected to ODS column chromatography, more highly purified active fractions can be obtained. A mixture of chloroform and methanol or a mixture of methanol and distilled water can be used as a developing solvent at the time of chromatography. A flow rate of the developing solvent is generally from 5 Ml/hr to 1000 Ml/hr and preferably from 20 Ml/hr to 500 Ml/hr. The fractions eluted by chromatography are collected in flasks in the amount of 5 Ml to 100 Ml respectively. Active fractions showing antioxidant activity can be obtained by measuring antioxidant activities of the collected fractions. Antioxidant activity can be measured by a known method (The Korean Society of Food and Nutrition, Handbook for Experiments in Food and Nutrition, 651p, 2000; Blois, M. S., Nature, 4617:1198, 1958).
Antioxidant activity was measured according to the method for measuring antioxidant activity using a free radical source, 1,1-diphenyl-2-picrylhydrazyl (DPPH) (The Korean Society of Food and Nutrition, Handbook for Experiments in Food and Nutrition, 651p, 2000; Blois, M. S., Nature, 4617: 1198, 1958). […] 0.8 Ml of DPPH (0.4 mM) solution and 3 Ml of ethanol were added, the reaction was carried out at the room temperature for 30 minutes and absorbance was measured at 517 nm. Antioxidant activity was expressed as a RC50 value. The RC50 represents the concentration of antioxidant (μg/Ml) required to achieve an absorbance equal to 50% of the absorbance of a control in which no antioxidants are contained.

For the molecule `COc1ccc(O)c(C(C)(C)C)c1` [BHA, butylated hydroxy anisole, reference compound], the “Antioxidant activity RC50” value was determined as 9.2 µg/mL. Take `Oc1cc(O)c2c(c1)O[C@H](c1ccc(O)c(O)c1)[C@@H](O)[C@@H]2c1c(O)cc(O)c2c1O[C@H](c1ccc(O)c(O)c1)[C@@H](O)C2` [Procyanidin B3, catechin-(4α→8)-catechin]: the “Antioxidant activity RC50” value was found to be 3.4 µg/mL. Besides, the “Antioxidant activity relative to α-tocopherol (times stronger)” value (compared with the natural antioxidant α-tocopherol, DPPH RC50) came to 3.8 times. The “Antioxidant activity relative to BHA (times stronger)” value (compared with the synthetic antioxidant BHA, DPPH RC50) is on record as 2.7 times. For the molecule `Cc1c(C)c2c(c(C)c1O)CC[C@@](C)(CCC[C@H](C)CCC[C@H](C)CCCC(C)C)O2` [α-tocopherol, reference compound], the “Antioxidant activity RC50” value worked out at 13.0 µg/mL.
